In patent US20220202912A1, “Polypeptides in Preparation of Drugs for Treatment or Prevention of Rheumatoid Arthritis” (priority 2011, published 2022):
Several values for one entry are separate records, joined by “and”; a condition that tells them apart may be missing. Identical values can stand only once. Where no end group is shown, it is not given here.

What was measured:
Assay type in all cases: in vivo, BALB/c transgenic TNF-luc mice
[1] = system: TNF-α; assay: immunohistochemistry of TNF-α in ankle joints, AIA transgenic TNF-luc mice; conditions: Adalimumab 8 mg/kg, mPEG-SC20k-HM-3 20 mg/kg
Experimental: (§1) Changes of expression of TNF-α and IL-6 are analyzed by HE staining and immunohistochemistry in the ankle joint, spleen and thymus of the mice. Observation and photographing are performed under the FOVs of ×200 and ×400 times respectively, 5 FOVs are taken randomly for each picture, and data statistics is performed.

[2] = system: CIA transgenic TNF-luc mice; assay: collagen type II-induced arthritis in transgenic TNF-luc mice (swelling, scores, weight); design: key to joint index score / arthritis index score: 0–4 per paw, four paws summed, max 16; key to swelling degree of right ankle: cm, day n thickness minus initial ankle thickness; key to systemic score: systemic score points, max 8; conditions: for left ankle swelling / right ankle swelling changes / arthritis index score / clinical score: Adalimumab 8 mg/kg, mPEG-SC20k-HM-3 20 mg/kg; for right ankle swelling changes: CIA TNF-luc mice; for right ankle swelling changes / arthritis index score / clinical score: mean ± SD; for arthritis index score / clinical score: CIA chronic model; for systemic score / joint index score / swelling degree of right ankle: 20 mg/kg
Experimental: 8 animals are randomly divided into 4 groups (n=2), a normal group, a model group, a positive drug group and a test group. On day 0, for the primary immunization, mice are hypodermically injected with 50 μL collagen emulsifier (containing CII 100 μg/ mouse) at the tail root of mice for sensitization. On day 0, initial ankle widths, initial foot palm widths and initial toe thicknesses of left and right feet of mice in each group are measured separately.
After day 21, the same dosage of emulsifier is used for second immunization at the tail root. After the symptoms such as redness and swelling of joints appear on the four toes of mice, continuous administration is performed for 15 days. The normal group and the model group are separately hypodermically injected with 0.9% normal saline (0.2 mL/20 g of body weight), once every 2 days, 7 times in total. The positive drug Adalimumab group is hypodermically injected with Adalimumab (8 mg/kg of body weight), once every 15 days, once in total. The test treatment group is hypodermically injected with mPEG-SC20k-HM-3 (20 mg/kg of body weight), once every 2 days, 7 times in total.
Every 2 days, the thickness of the ankle, the width of the foot palm and the thickness of the toes of each group of mice are measured with a vernier caliper.
Swelling degree of left ankle (cm)=swelling thickness of left ankle on day n of the experiment−measured initial thickness of left ankle.
Swelling degree of right ankle (cm)=swelling thickness of right ankle on day n of the experiment−measured initial thickness of right ankle.
The joints of the mouse paw are observed with naked eyes, and the joints are scored every 2 days from day 30. Scoring is performed in terms of level 0 to level 4, 5 levels in total. 0=no erythema or swelling; 1=slight erythema or swelling, with erythema or swelling on one of the front/hind toe joints; 2=erythema or swelling on more than one toe; 3=swelling of paw beneath the ankle or wrist joint; 4=swelling of all paws including the ankle joint. Four paws of the mice are scored separately, and the highest score is 16 points.
After the secondary inflammation appears, systemic scoring is performed every 2 days, and the scoring standards are as follows:
Hind foot: no swelling=0 point, swelling of one hind foot=1 point, swelling of two hind feet=2 points.
Front foot: no swelling=0, swelling of one front foot=1 point, swelling of two front feet=2 points.
Ears: no redness symptoms and nodules=0 point, redness symptoms or nodules of one ear=1 point, red symptoms and nodules of two ears=2 points.
Nose: no swelling=0 point, obvious swelling=1 point.
Tail: no nodule=0 point, nodules=1 point; the highest score is 8 points.

[3] = system: IL-6; assay: immunohistochemistry of IL-6 in spleen and thymus, AIA transgenic TNF-luc mice; conditions: Adalimumab 8 mg/kg, mPEG-SC20k-HM-3 20 mg/kg
Experimental: as §1

For “mPEG-SC20k-Ile-Val-Arg-Arg-Ala-Asp-Arg-Ala-Ala-Val-Pro-Gly-Gly-Gly-Gly-Arg-Gly-Asp ({mPEG‑SC 20k}-IVRRADRAAVPGGGGRGD) [polypeptide III, No. 3]”, the “immunohistochemical score of TNF-α in ankle joint cavity” value [1] was 0.149±0.047, the left ankle swelling ([2]; 0 d) was 0.000 ± 0.000 cm and the “right ankle swelling changes” value ([2]; 0 d) was 0.000 ± 0.000 cm. The left ankle swelling ([2]; 12 d) was 0.011 ± 0.004 cm, the “right ankle swelling changes” value ([2]; 12 d) was 0.005 ± 0.021 cm and the left ankle swelling ([2]; 15 d) was 0.028 ± 0.023 cm. The “right ankle swelling changes” value ([2]; 15 d) was 0.003 ± 0.004 cm, the left ankle swelling ([2]; 18 d) was 0.016 ± 0.008 cm and the “right ankle swelling changes” value ([2]; 18 d) was 0.011 ± 0.016 cm. For the same substance, the left ankle swelling ([2]; 21 d) was 0.011 ± 0.010 cm, the “right ankle swelling changes” value ([2]; 21 d) was 0.010 ± 0.011 cm and the left ankle swelling ([2]; 24 d) was 0.008 ± 0.006 cm. The “right ankle swelling changes” value ([2]; 24 d) was 0.007 ± 0.005 cm, the left ankle swelling ([2]; 27 d) was 0.009 ± 0.004 cm and the “right ankle swelling changes” value ([2]; 27 d) was 0.004 ± 0.014 cm. For the same substance, the left ankle swelling ([2]; 30 d) was 0.003 cm, the “right ankle swelling changes” value ([2]; 30 d) was 0.015 ± 0.001 cm and the arthritis index score ([2]; 30 d) was 5.50 ± 0.71. For the same substance, the clinical score ([2]; 30 d) was 4.50 ± 0.71, the left ankle swelling ([2]; 33 d) was 0.007±0.013 cm and the “right ankle swelling changes” value ([2]; 33 d) was 0.018 ± 0.020 cm. It also gave an arthritis index score ([2]; 33 d) of 7.00 ± 1.41, a clinical score ([2]; 33 d) of 4.00 ± 0.00 and a left ankle swelling ([2]; 36 d) of 0.006 ± 0.006 cm. The “right ankle swelling changes” value ([2]; 36 d) was 0.006 ± 0.008 cm, the arthritis index score ([2]; 36 d) was 6.50 ± 0.71 and the clinical score ([2]; 36 d) was 4.00 ± 0.00. The left ankle swelling ([2]; 39 d) was 0.026±0.023 cm, the “right ankle swelling changes” value ([2]; 39 d) was 0.001 ± 0.007 cm and the arthritis index score ([2]; 39 d) was 6.00 ± 0.00. The clinical score ([2]; 39 d) was 4.00 ± 0.00, the left ankle swelling ([2]; 42 d) was 0.004 ± 0.006 cm and the “right ankle swelling changes” value ([2]; 42 d) was 0.017 ± 0.004 cm. The arthritis index score ([2]; 42 d) was 4.50 ± 0.71, the clinical score ([2]; 42 d) was 4.00 ± 0.00 and the left ankle swelling ([2]; 45 d) was 0.011±0.004 cm. The “right ankle swelling changes” value ([2]; 45 d) was 0.000 ± 0.006 cm, the arthritis index score ([2]; 45 d) was 4.50 ± 0.71 and the clinical score ([2]; 45 d) was 4.00 ± 0.00. The left ankle swelling ([2]; 48 d) was 0.001±0.021 cm, the “right ankle swelling changes” value ([2]; 48 d) was 0.001 ± 0.007 cm and the arthritis index score ([2]; 48 d) was 4.50 ± 0.71. The clinical score ([2]; 48 d) was 5.00 ± 0.00, the left ankle swelling ([2]; 51 d) was 0.023±0.007 cm and 0.023 cm and the “right ankle swelling changes” value ([2]; 51 d) was 0.005 ± 0.007 cm. The arthritis index score ([2]; 51 d) was 4.50 ± 0.71, the clinical score ([2]; 51 d) was 4.00 ± 0.00 and the systemic score ([2]; day 33) was 4.00±0.00. The joint index score ([2]; day 36) was 6.50±0.71, the “swelling degree of right ankle” value ([2]; day 36) was 0.006±0.008 and the systemic score ([2]; day 36) was 4.00±0.00. For the same substance, the joint index score ([2]; day 39) was 6.00±0.00, the “swelling degree of right ankle” value ([2]; day 39) was 0.001±0.008 and the systemic score ([2]; day 39) was 4.00±0.00. For the same substance, the joint index score ([2]; day 42) was 4.50±0.7, the “swelling degree of right ankle” value ([2]; day 42) was 0.001±0.007 and the systemic score ([2]; day 42) was 4.00±0.00. The joint index score ([2]; day 45) was 4.50±0.71, the “swelling degree of right ankle” value ([2]; day 45) was 0.000±0.006 and the systemic score ([2]; day 45) was 4.00±0.00. For the same substance, the joint index score ([2]; day 48) was 4.50±0.71, the “swelling degree of right ankle” value ([2]; day 48) was 0.001±0.007 and the joint index score ([2]; day 51) was 4.50±0.71. The “swelling degree of right ankle” value ([2]; day 51) was 0.005±0.007, the systemic score ([2]; day 51) was 4.00±0.00 and the “immunohistochemical score of IL-6 in spleen” value [3] was 0.006±0.002. For the same substance, the “immunohistochemical score of IL-6 in thymus” value [3] was 0.068±0.033.
